Assay results reported in the kinase profiling compilation of Christmann-Franck et al. (2016).

Key:
Experiment in all cases: KINOMEscan competition binding
Settings in all cases: compound 10.0 µM
RPS6KA1 KD2 (human) = RPS6KA1 KD2 (human) (UniProt Q15418)
[1] = test system: FLT3 (human), P36888 [D835H]
PLK1 (human) = PLK1 (human) (UniProt P53350)
TNK2 (human) = TNK2 (human) (UniProt Q07912)
NEK5 (human) = NEK5 (human) (UniProt Q6P3R8)
STK33 (human) = STK33 (human) (UniProt Q9BYT3)
[2] = test system: ABL1 (human), P00519 [F317I]
[3] = test system: FLT3 (human), P36888 [D835Y]
[4] = test system: EGFR (human), P00533 [A750P; 747-749 del]
SIK2 (human) = SIK2 (human) (UniProt Q9H0K1)
SLK (human) = SLK (human) (UniProt Q9H2G2)
RIOK1 (human) = RIOK1 (human) (UniProt Q9BRS2)
DAPK3 (human) = DAPK3 (human) (UniProt O43293)
SIK1 (human) = SIK1 (human) (UniProt P57059)
Sequence of SIK1 (human) (P57059 whole entry, looked up): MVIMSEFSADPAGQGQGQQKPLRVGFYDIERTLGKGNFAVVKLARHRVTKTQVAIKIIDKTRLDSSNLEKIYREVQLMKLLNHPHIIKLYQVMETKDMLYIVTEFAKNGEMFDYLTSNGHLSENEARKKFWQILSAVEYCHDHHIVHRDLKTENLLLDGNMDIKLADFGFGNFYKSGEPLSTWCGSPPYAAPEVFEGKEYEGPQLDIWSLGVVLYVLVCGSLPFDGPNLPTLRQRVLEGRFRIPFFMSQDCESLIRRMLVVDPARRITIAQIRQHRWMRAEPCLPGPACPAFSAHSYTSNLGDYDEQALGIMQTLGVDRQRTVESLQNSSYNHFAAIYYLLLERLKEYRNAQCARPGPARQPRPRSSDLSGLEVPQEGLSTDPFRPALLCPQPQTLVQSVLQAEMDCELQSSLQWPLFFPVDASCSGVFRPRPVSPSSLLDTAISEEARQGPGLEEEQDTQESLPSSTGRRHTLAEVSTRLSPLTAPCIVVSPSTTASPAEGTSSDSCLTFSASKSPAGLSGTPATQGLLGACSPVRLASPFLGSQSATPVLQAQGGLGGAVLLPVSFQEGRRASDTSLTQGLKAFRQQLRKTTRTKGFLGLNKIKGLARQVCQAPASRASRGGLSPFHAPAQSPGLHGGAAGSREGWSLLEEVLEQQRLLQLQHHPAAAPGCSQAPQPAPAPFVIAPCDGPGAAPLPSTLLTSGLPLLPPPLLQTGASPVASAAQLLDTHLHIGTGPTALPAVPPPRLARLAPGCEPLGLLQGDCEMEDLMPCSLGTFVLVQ

[5] = test system: ABL1 (human), P00519 [F317L]
PTK2B (human) = PTK2B (human) (UniProt Q14289)
Sequence of PTK2B (human) (Q14289 whole entry, looked up): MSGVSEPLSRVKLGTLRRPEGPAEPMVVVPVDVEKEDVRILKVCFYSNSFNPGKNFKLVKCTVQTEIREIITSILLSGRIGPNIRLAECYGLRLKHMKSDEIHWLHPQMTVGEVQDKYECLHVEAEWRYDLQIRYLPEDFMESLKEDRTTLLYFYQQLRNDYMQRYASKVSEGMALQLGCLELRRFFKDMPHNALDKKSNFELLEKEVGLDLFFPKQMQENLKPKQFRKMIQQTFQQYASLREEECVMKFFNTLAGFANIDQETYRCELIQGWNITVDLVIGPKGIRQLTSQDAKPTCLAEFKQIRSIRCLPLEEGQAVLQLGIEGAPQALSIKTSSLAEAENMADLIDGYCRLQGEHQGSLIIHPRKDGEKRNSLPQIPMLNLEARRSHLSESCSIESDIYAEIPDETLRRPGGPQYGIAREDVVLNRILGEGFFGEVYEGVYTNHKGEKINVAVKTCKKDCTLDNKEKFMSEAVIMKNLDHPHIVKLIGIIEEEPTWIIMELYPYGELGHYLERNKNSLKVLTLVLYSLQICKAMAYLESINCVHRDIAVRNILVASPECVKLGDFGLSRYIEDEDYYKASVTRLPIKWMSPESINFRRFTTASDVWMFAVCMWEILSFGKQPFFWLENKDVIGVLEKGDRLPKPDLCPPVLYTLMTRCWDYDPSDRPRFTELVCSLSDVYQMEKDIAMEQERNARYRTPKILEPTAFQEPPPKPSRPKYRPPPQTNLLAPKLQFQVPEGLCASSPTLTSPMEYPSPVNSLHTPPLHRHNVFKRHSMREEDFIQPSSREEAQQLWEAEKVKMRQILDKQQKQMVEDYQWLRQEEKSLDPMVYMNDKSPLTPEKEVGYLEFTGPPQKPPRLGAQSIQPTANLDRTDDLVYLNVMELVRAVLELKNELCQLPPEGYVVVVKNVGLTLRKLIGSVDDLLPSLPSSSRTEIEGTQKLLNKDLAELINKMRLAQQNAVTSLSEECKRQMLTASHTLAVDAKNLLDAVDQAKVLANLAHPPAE

DCLK3 (human) = DCLK3 (human) (UniProt Q9C098)
FRK (human) = FRK (human) (UniProt P42685)
CHEK1 (human) = CHEK1 (human) (UniProt O14757)
Sequence of CHEK1 (human) (O14757 whole entry, looked up): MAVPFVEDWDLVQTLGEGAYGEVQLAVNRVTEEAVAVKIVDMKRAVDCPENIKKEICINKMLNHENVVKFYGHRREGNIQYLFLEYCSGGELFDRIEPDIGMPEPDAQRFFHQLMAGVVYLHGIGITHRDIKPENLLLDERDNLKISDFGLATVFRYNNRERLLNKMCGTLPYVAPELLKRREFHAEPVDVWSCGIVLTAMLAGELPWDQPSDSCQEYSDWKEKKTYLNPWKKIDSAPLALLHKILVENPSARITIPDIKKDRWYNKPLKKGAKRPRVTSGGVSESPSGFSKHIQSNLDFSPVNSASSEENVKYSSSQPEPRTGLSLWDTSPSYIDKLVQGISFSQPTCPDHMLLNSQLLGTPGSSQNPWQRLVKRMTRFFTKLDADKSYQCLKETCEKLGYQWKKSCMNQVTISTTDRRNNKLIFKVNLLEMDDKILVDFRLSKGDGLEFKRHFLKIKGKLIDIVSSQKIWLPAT

RPS6KA6 KD2 (human) = RPS6KA6 KD2 (human) (UniProt Q9UK32)
FES (human) = FES (human) (UniProt P07332)
ULK1 (human) = ULK1 (human) (UniProt O75385)
PTK2 (human) = PTK2 (human) (UniProt Q05397)
NEK9 (human) = NEK9 (human) (UniProt Q8TD19)
BMP2K (human) = BMP2K (human) (UniProt Q9NSY1)
CAMKK2 (human) = CAMKK2 (human) (UniProt Q96RR4)
ULK2 (human) = ULK2 (human) (UniProt Q8IYT8)
[6] = target: TYK2 JH2 pseudokinase (human) (UniProt P29597)
MERTK (human) = MERTK (human) (UniProt Q12866)
Sequence of MERTK (human) (Q12866 whole entry, looked up): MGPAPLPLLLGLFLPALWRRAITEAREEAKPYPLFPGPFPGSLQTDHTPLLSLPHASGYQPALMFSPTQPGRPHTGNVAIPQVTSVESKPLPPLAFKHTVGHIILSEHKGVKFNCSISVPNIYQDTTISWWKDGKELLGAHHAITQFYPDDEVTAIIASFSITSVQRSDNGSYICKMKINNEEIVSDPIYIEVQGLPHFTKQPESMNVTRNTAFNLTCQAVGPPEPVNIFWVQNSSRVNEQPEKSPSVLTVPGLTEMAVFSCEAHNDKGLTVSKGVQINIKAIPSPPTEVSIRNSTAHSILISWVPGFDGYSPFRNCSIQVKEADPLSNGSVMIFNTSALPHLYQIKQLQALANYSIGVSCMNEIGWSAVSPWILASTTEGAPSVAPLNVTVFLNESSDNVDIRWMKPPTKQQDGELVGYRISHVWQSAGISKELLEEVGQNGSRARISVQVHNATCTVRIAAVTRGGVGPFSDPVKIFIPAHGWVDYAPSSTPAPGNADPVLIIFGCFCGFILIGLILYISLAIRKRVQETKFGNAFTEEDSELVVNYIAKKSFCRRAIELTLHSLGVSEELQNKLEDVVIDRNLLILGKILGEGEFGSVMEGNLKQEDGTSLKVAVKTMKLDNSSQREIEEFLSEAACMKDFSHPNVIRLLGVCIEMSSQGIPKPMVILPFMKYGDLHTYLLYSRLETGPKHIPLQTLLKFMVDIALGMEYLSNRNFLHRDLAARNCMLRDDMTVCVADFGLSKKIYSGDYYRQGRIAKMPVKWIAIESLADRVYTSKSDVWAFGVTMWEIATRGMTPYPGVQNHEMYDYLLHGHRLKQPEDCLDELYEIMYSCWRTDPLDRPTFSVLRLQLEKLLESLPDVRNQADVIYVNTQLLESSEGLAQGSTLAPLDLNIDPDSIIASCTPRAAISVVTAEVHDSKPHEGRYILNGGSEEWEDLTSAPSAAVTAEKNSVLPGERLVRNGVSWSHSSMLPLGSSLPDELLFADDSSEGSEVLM

TTK (human) = TTK (human) (UniProt P33981)
FER (human) = FER (human) (UniProt P16591)
PIP4K2B (human) = PIP4K2B (human) (UniProt P78356)
Sequence of PIP4K2B (human) (P78356 whole entry, looked up): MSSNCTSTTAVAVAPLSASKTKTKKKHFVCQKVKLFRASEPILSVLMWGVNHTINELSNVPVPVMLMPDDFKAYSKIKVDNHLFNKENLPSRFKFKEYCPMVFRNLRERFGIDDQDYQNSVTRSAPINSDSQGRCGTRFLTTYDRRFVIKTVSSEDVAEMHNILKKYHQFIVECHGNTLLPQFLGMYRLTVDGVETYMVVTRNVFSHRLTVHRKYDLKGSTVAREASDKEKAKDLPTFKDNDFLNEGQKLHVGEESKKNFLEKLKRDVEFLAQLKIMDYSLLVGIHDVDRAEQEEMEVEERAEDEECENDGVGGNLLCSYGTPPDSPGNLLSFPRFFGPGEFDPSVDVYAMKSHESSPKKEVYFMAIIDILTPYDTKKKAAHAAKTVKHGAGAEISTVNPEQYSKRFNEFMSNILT

GAK (human) = GAK (human) (UniProt O14976)
STK10 (human) = STK10 (human) (UniProt O94804)
PLK3 (human) = PLK3 (human) (UniProt Q9H4B4)

Sequence of PLK1 (human) (P53350 whole entry, looked up): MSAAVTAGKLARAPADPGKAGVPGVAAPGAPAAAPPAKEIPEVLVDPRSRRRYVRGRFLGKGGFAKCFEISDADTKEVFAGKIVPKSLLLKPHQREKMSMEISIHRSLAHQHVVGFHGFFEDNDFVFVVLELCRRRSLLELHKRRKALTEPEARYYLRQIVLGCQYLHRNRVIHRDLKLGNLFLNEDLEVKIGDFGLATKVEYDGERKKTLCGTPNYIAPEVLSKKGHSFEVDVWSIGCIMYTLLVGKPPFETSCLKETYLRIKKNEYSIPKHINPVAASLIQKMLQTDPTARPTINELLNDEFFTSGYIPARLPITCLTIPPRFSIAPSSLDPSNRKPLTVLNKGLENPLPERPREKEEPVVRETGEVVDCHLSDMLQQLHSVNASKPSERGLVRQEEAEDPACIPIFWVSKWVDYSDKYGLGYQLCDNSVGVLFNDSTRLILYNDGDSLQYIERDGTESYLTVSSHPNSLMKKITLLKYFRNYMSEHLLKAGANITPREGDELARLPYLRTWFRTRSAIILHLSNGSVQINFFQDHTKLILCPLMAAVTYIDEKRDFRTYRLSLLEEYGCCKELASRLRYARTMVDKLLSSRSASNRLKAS
Sequence of NEK5 (human) (Q6P3R8 whole entry, looked up): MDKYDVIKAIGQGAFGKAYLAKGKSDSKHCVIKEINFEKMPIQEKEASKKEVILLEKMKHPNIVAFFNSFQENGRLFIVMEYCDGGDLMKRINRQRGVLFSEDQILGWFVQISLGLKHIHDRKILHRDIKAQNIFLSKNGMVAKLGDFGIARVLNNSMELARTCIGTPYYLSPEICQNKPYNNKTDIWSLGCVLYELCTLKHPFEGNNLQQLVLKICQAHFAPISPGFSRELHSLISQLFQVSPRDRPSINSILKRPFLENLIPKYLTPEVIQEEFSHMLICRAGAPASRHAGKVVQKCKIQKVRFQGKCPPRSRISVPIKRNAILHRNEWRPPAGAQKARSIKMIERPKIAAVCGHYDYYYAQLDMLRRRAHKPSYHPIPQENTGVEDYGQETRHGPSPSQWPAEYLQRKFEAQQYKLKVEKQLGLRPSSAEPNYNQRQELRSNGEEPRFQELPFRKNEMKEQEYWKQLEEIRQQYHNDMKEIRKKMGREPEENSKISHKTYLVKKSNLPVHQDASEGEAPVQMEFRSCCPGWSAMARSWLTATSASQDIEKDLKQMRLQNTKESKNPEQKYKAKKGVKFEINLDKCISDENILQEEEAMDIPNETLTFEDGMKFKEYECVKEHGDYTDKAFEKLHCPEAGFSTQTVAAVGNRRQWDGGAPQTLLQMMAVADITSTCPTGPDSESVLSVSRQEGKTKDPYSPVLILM

- kinase still bound, per cent of control (RPS6KA1 KD2 (human)): 22%
- kinase still bound, per cent of control [1]: 30%
- kinase still bound, per cent of control (PLK1 (human)): 2.1%
- kinase still bound, per cent of control (TNK2 (human)): 7.4%
- kinase still bound, per cent of control (NEK5 (human)): 30%
- kinase still bound, per cent of control (STK33 (human)): 18%
- kinase still bound, per cent of control [2]: 29%
- kinase still bound, per cent of control [3]: 26%
- kinase still bound, per cent of control [4]: 33%
- kinase still bound, per cent of control (SIK2 (human)): 26%
- kinase still bound, per cent of control (SLK (human)): 3.2%
- kinase still bound, per cent of control (RIOK1 (human)): 32%
- kinase still bound, per cent of control (DAPK3 (human)): 13%
- kinase still bound, per cent of control (SIK1 (human)): 14%
- kinase still bound, per cent of control [5]: 30%
- kinase still bound, per cent of control (PTK2B (human)): 13%
- kinase still bound, per cent of control (DCLK3 (human)): 4%
- kinase still bound, per cent of control (FRK (human)): 7%
- kinase still bound, per cent of control (CHEK1 (human)): 14%
- kinase still bound, per cent of control (RPS6KA6 KD2 (human)): 4.7%
- kinase still bound, per cent of control (FES (human)): 26%
- kinase still bound, per cent of control (ULK1 (human)): 7.8%
- kinase still bound, per cent of control (PTK2 (human)): 1.9%
- kinase still bound, per cent of control (BMP2K (human)): 19%
- kinase still bound, per cent of control (CAMKK2 (human)): 31%
- kinase still bound, per cent of control (ULK2 (human)): 1.2%
- kinase still bound, per cent of control [6]: 32%
- kinase still bound, per cent of control (MERTK (human)): 23%
- kinase still bound, per cent of control (TTK (human)): 14%
- kinase still bound, per cent of control (FER (human)): 21%
- kinase still bound, per cent of control (PIP4K2B (human)): 31%
- kinase still bound, per cent of control (GAK (human)): 1%
- kinase still bound, per cent of control (STK10 (human)): 10%
- kinase still bound, per cent of control (PLK3 (human)): 11%
Compound: COc1cc(N2CCN(C)CC2)ccc1Nc1ncc2c(n1)N(C1CCCC1)C(C)CC(=O)N2 (stereo not given)
- kinase still bound, per cent of control (NEK9 (human)): 27%
